Measured values taken from patent publication US9656984B2, “PI3K/AKT/mTOR inhibitors and pharmaceutical uses thereof” (UNIVERSITE DE RENNES 1, priority 2013, dated 2017).
Each block holds one compound with its values, some of them ahead of it.

Key:
[1] = test system: MDA-MB-453 (HER2 positive) breast tumor cell line; assay: Cell death by MTT assay, MDA-MB-453; type: cell-based, human; settings: 24 hours, mean of two experiments
Description: (§1) The ER-positive breast tumor cell lines MCF-7 and T47-D and the HER2 positive breast tumor cell lines MDA-MB-453 and BT474 (also ER-positive) were incubated with the indicated concentration of each mentioned compound of formula (I) for 24 hours and then cell death was assessed using MTT assay.
(§2) For each cell line, the percentage of cell death (mean of four experiments for cell lines MCF-7 and T47-D, and two experiments for cell lines MDA-MB-453 and BT474) is given in view of the increasing concentration of each tested compound of the invention.
(§3) Cell viability was assessed using the 3-[4,5-dimethylthiazol-2-yl]-2,5-diphenyltetrazolium bromide (MTT) viability assay (1). In brief, cells (4×10^4 per well) were cultured for 20 h in flat-bottomed 96 well plates with various concentrations of the apoptosis inducer. Then 0.015 ml of MTT (5 mg/ml in PBS) was added to each well and incubated for 4 h at 37° C. Formazan salt precipitats were dissolved by adding 0.115 ml of isopropyl alcohol containing 1% formic acid (v/v), and the absorbance was measured at 570 nm.

Leukemic T-cell line CEM = assay: Cytotoxic effect by MTT assay, CEM; type: cell-based; settings: 24 hours, FIGS. 2 to 5
Description: (§4) Leukemic T-cell lines Jurkat and CEM were incubated for 24 hours (see FIGS. 1, 2, 3, 4 and 5) or for 20 hours (see FIG. 6) with compounds of formula (I) and with compound A, at the indicated concentrations and cell death was assessed using the viability assay MTT, which estimates the metabolic state of the cell.
as §3

[2] = test system: MCF-7 (ER-positive) breast tumor cell line; assay: Cell death by MTT assay, MCF-7; type: cell-based, human; settings: 24 hours, mean of four experiments
Description: as §1, §2, §3

[3] = test system: BT474 (ER-positive/HER2-positive) breast tumor cell line; assay: Cell death by MTT assay, BT474; type: cell-based, human; settings: 24 hours, mean of two experiments
Description: as §1, §2, §3

AKT phosphorylation = assay: In cellulo IC50 of AKT phosphorylation in CEM cells (Western blot densitometry); type: cell-based; settings: Homo sapiens, CCRF-CEM, 2 hours incubation, AKT phosphorylation vs whole AKT, read-out: In vivo IC50
Description: CEM cells were incubated for 2 hours with the indicated concentrations of each mentioned compound of formula (I). Cells were then lysed and 100 μg of protein was loaded per line in an SDS-PAGE. Bands from AKT phosphorylation and whole AKT observed by Western blot were scanned and quantified by densitometric analysis. Based on these values, an in cellulo IC50 (half maximal inhibitory concentration) was measured for each compound of formula (I).
(§5) Immunoblots Excepted for immunoprecipitation experiments in which cells were lyzed with RIPA buffer, cells were lyzed for 30 min at 4° C. in Lysis buffer (25 mM HEPES pH 7.4, 1% v/v Triton X-100, 150 mM NaCl, 2 mM EGTA supplemented with a mix of protease inhibitors). Protein concentration was determined by the bicinchoninic acid method (Pierce, Rockford, Ill., USA) according to the manufacturer's protocol. Proteins were resolved by 8, 10 or 12% SDS-PAGE and transferred to a nitrocellulose membrane (GE Healthcare, Buckinghamshire, UK). The membrane was blocked 15 min with TBST (50 mM Tris, 160 mM NaCl, 0.05% v/v Tween 20, pH 7.4) containing 5% w/v dried skimmed milk (TBS™). Primary antibody was incubated overnight at 4° C. in TBS™. The membrane was intensively washed (TBST) and then the peroxydase-labeled anti-mouse IgG1 or IgG2a (CliniSciences, Nanterre, France) was added for 45 min. Proteins were visualized with the enhanced chemiluminescence substrate kit (ECL RevelBIOt®, Ozyme, Saint Quentin en Yvelines, France).

[4] = test system: T47-D (ER-positive) breast tumor cell line; assay: Cell death by MTT assay, T47-D; type: cell-based, human; settings: 24 hours, mean of four experiments
Description: as §1, §2, §3

[5] = test system: Leukemic T-cell line Jurkat; assay: Cytotoxic effect by MTT assay, Jurkat; type: cell-based; settings: 24 hours (FIG. 1) or 20 hours (FIG. 6)
Description: as §4, §3

[6] = test system: PI3K/AKT activity (AKT phosphorylation); assay: PI3K/AKT/mTOR pathway inhibitory activity: level of AKT phosphorylation in CEM cells over time; type: cell-based, human; settings: 10 μM, FIGS. 7 and 8
Description: The CEM cell was incubated with 10 μM of each mentioned compound of formula (I) for the indicated times and then cells were lysed and 100 μg of protein was loaded per line and resolved by SDS-PAGE. The levels of AKT phosphorylation (hallmark of PI3K activation) and total AKT (loading control) were analyzed by Western blot and the amount of AKT phosphorylation relative to the total amount of protein AKT was quantified by densitometric analysis, the intensity of each band was scanned and the level of AKT phosphorylation was reported to the amount of whole AKT and the percentage of phosphorylated-AKT was depicted.
as §5

mTORC1 = mTORC1 (Homo sapiens, UniProt P42345); assay: Immunoblot of 4EBP1 threonines 37/46 phosphorylation (targets of mTORC1); type: cell-based; parameters: endogenous in cells; settings: with increasing compound concentrations, FIG. 12A
Description: (§6) The inhibition of the phosphorylation level of AKT at serine 473, target of mTORC2, and 4EBP1 (also called Eukaryotic translation initiation factor 4E-binding protein 1) at threonines 37/46, which are targets of mTORC1, by compound 48 (compound 25 linked to biotin) was assessed by immunoblotting. Total AKT and 4EBP1 were added as loading controls.
as §5

mTORC2 = mTORC2 (Homo sapiens, UniProt P42345); assay: Immunoblot of AKT serine 473 phosphorylation (target of mTORC2); type: cell-based; parameters: endogenous in cells; settings: with increasing compound concentrations, FIG. 12A
Description: as §6, §5

mTOR = target: T1, mTOR (Homo sapiens, UniProt P42345); assay: Biotin pull-down with streptavidin-coated beads from CEM cells, mTOR immunoblot; type: binding; settings: 1 μM, CEM leukemic T cells, FIG. 12B
T1 construct: endogenous in cells; host or cells: CEM leukemic T cells
Description: Compounds 25 and 48 (compound 25 linked to biotin) (1 μM) were incubated with CEM leukemic T cells for indicated times. Then cells were lyzed in RIPA buffer and biotin was immunoprecipitated using streptavidin-coated magnetic beads. Beads were washed and the presence of mTOR was analyzed in compound 48-associated complex by Immunoblotting.
CEM cells (10^7 cells) were pre-incubated for indicated times with 1 μM of compound 25 or compound 48, washed with PBS and lysed using RIPA buffer [50 mM Tris pH7.4, 1% NP-40, 0.5% Na-deoxycholate, 0.1% SDS, 150 mM NaCl, 2 mM EDTA, inhibitors of protease and phosphatase (Sigma)].

SMILES: O=c1cc(N2CCOCC2)oc2c(-c3ccccc3)cccc12 [LY294002, reference compound]
- percentage of cell death ([1]; MDA-MB-453, 0.390625 μM): 0%
- percentage of cell death ([1]; MDA-MB-453, 0.78125 μM): 0%
- percentage of cell death ([1]; MDA-MB-453, 1.5625 μM): 0%
- percentage of cell death ([1]; MDA-MB-453, 3.125 μM): 0%
- percentage of cell death ([1]; MDA-MB-453, 6.25 μM): 17.45%
- percentage of cell death ([1]; MDA-MB-453, 12.5 μM): 53.74%
- percentage of cell death ([1]; MDA-MB-453, 25 μM): 76.61%
- percentage of cell death ([1]; MDA-MB-453, 50 μM): 86.55%
- percentage of cell death (cytotoxic effect) (Leukemic T-cell line CEM): much lower cell death percentage
- percentage of cell death ([2]; MCF-7, 6.25 μM): 11.53%
- percentage of cell death ([2]; MCF-7, 12.5 μM): 11.067%
- percentage of cell death ([2]; MCF-7, 25 μM): 13.51%
- percentage of cell death ([2]; MCF-7, 50 μM): 18.89%
- percentage of cell death ([3]; BT474, 6.25 μM): 35.35%
- percentage of cell death ([3]; BT474, 12.5 μM): 48.7%
- percentage of cell death ([3]; BT474, 25 μM): 62.79%
- percentage of cell death ([3]; BT474, 50 μM): 77.2%
- IC50 (AKT phosphorylation): > 10 µM
- percentage of cell death ([4]; 6.25 μM): 32.33%
- percentage of cell death ([4]; 12.5 μM): 40.42%
- percentage of cell death ([4]; 25 μM): 50.01%
- percentage of cell death ([4]; 50 μM): 55.69%

SMILES: CCOc1cccc2c1OC(c1ccc(F)cc1)C([N+](=O)[O-])=C2 (stereo not shown) [A]
- percentage of cell death (cytotoxic effect) (Leukemic T-cell line CEM): lower percentage of cell death
- percentage of cell death (cytotoxic effect) [5]: lower percentage of cell death
- inhibitory activity on PI3K/AKT (level of AKT phosphorylation) [6]: very weak inhibitory activity

- phosphorylation of 4EBP1 at threonines 37/46 (mTORC1): decreases
- phosphorylation of AKT at serine 473 (mTORC2): decreases
- binding to mTOR (mTOR): binds to mTOR
SMILES: O=C(CCCCC1SC[C@@H]2NC(=O)N[C@H]12)NCCCOc1cc(Br)c2c(c1)C=C([N+](=O)[O-])C(c1ccc(Br)cc1)O2 (stereo partly shown) [Compound 48]
